Laboratory results taken from US20240285672A1, “BETA-GLUCAN FOR PREVENTING AND/OR TREATING FIBROSIS AND RELATED DISEASES” (GN Corporation Co Ltd, priority 2021, published 2024).

How the values were obtained:
Format in all cases: in vivo, C57BL/6J mice
[1] = tested on: STAM mouse model of non-alcoholic steatohepatitis; assay: Sirius red staining of liver sections, fibrosis area (F18S study); conditions: STAM mice liver, x200
Procedure: To visualize collagen deposition, Bouin's fixed liver sections were stained using picro-Sirius red solution (Waldeck, Germany). Briefly, sections were deparaffinized and hydrophilized with xylene, 100-70% alcohol series and RO water, and then treated with 0.03% picro-Sirius red solution (Cat No.: 1A-280) for 60 minutes. After washing with 0.5% acetic acid solution and RO water, stained sections were dehydrated and cleared with 70-100% alcohol series and xylene, then sealed with Entellan® new (Merck, Germany) and used for observation.
For quantitative analysis of the fibrosis area and inflammation area, bright field images of Sirius red-stained and F4/80-immunostained sections were captured around the central vein using a digital camera (DFC295; Leica, Germany) at 200-fold magnification, and the positive areas in 5 fields/section were measured using ImageJ software (National Institute of Health, USA).

[2] = Plasma ALT in STAM mice (F18S study); conditions: at 9 weeks of age
Procedure: At study termination, non-fasting blood was collected through direct cardiac puncture using pre-cooled syringes. The collected blood was transferred in pre-cooled polypropylene tubes with anticoagulant (Novo-Heparin) and stored on ice until centrifugation. The blood samples were centrifuged at 1,000×g for 15 minutes at 4° C. The supernatant was collected and stored at −80° C. for biochemistry and evaluation.
Plasma ALT levels were measured by FUJI DRI-CHEM 7000 (Fujifilm Corporation).

[3] = tested on: STAM mouse model of non-alcoholic steatohepatitis; assay: HE staining, NAFLD Activity Score (F18S study); conditions: STAM mice liver
Procedure: For HE staining, sections were cut from paraffin blocks of liver tissue prefixed in Bouin's solution and stained with Lillie-Mayer's Hematoxylin (Muto Pure Chemicals Co., Ltd., Japan) and eosin solution (Wako Pure Chemical Industries). The NAFLD Activity Score (NAS) was calculated according to the criteria of Kleiner (Kleiner D E. Et al., Hepatology, 2005; 41:1313), as shown in Table 2. For NAS scoring, bright field images of HE-stained sections were captured using a digital camera (DFC295; Leica, Germany) at 50- and 200-fold magnifications. Steatosis score in 1 section/mouse (representative 1 field at 50-fold magnification), inflammation score in 1 section/mouse (representative 1 field around the central vein at 200-fold magnification) and ballooning score in 1 section/mouse (representative 1 field around the central vein at 200-fold magnification) were estimated.

[4] = tested on: gut microbiota; assay: Gut microbiome analysis of fecal samples, 16S rRNA sequencing (STAM mice)
Description: Frequency: Fecal samples were collected at the 6 weeks of age (before administration) and 9 weeks of age (before sacrifice).
Procedure: At 6 weeks of age, fecal samples were collected from each mouse by clean catch method. Handle animals with clean gloves sterilized with 70% ethanol. A sterile petri dish was placed on the bench. Gently massage the abdomen, position the bottom of mouse over a fresh petri dish, and collect 1-2 fecal pellets. At sacrifice, fecal samples were aseptically collected from cecum. The tubes with feces were placed on ice immediately. These tubes were snap frozen in liquid nitrogen and stored at −80° C. for shipping.
In this analysis, the 16S rRNA sequence data acquired by the next-generation sequencer from the fecal […] was used to perform community analysis using the QIIME2 program for microbial community analysis. The raw read data in FASTQ format output from the next-generation sequencer was trimmed to remove adapter sequences and low QV regions that may be included in the data. Cutadapt was used to remove adapter sequences from DNA sequencing reads. Trimmomatic was used as read trimming tool for Illumina NGS data. The adapter sequence was trimmed using the adapter trimming program “cutadapt” if the Trimming of the region at the end of the read sequence overlapped the corresponding sequence by at least one base (mismatch tolerance: 20%). […]

Which “Sirius red average positive stained area” value [1] does the source give for `CCCc1nc2c(C)cc(-c3nc4ccccc4n3C)cc2n1Cc1ccc(-c2ccccc2C(=O)O)cc1` [Telmisartan] here?
The value was 0.59.

What about the “Plasma ALT levels (Mean)” value [2] of the same molecule?
Its value is 36 U/L.

And the NAS average score ([3]; HE staining)?
The NAS average score was 2.625.

And the “NAS compared with the other groups” value ([3]; HE staining)?
Its value is “significantly lesser score”.

What about the “Ballooning and steatosis score” value ([3]; compared with the vehicle) of the same molecule?
Its value is “decreased most”.

And the “decrease in firmicutes and increase in Bacteroides” value ([4]; post-intervention, compared to all other groups)?
Its value is “highest”.

What about the Proteobacteria ([4]; pre vs post-intervention) of the same molecule?
Its Proteobacteria is “increased”.
